The values that follow come from ChEMBL document CHEMBL4043155, “Development of helix-stabilized antimicrobial peptides composed of lysine and hydrophobic α,α-disubstituted α-amino acid residues” (2017).

Format in all cases: functional
One experiment concerns Escherichia coli. The experiment can be described thus: Antimicrobial activity against Escherichia coli NBRC 3972 after 16 hrs by microbroth dilution method. The conditions noted are these: NBRC 3972, 16 h.
For another experiment, the system named is Pseudomonas aeruginosa. The experiment can be described thus: Antimicrobial activity against Pseudomonas aeruginosa NBRC 13275 after 16 hrs by microbroth dilution method. The conditions noted are these: NBRC 13275, 16 h.
In another experiment the test system is Staphylococcus aureus. As to the kind of experiment: Antimicrobial activity against Staphylococcus aureus NBRC 13276 after 16 hrs by microbroth dilution method. Conditions: NBRC 13276, 16 h.

Converted amounts (≈) assume the structure as drawn. Where a SMILES comes first, the peptide text is derived from it. [ ]: non-standard residue; d: D form. Ac6c = NC1(C(=O)O)CCCCC1; Ac5c = NC1(C(=O)O)CCCC1

In the case of `CC(=O)N[C@H](CCCCN)C(=O)N[C@H](CCCCN)C(=O)NC(C)(C)C(=O)N[C@H](CCCCN)C(=O)N[C@H](CCCCN)C(=O)NC(C)(C)C(=O)N[C@H](CCCCN)C(=O)N[C@H](CCCCN)C(=O)NC(C)(C)C(N)=O`, the MIC in the experiment on Escherichia coli, against Pseudomonas aeruginosa and in the experiment on Staphylococcus aureus was more than 800 µM throughout.

Turning to Ac-KKAKKAKKA-NH2, the MIC against Escherichia coli, with Pseudomonas aeruginosa and against Staphylococcus aureus was more than 800 µM in each case.

Turning to `CC(=O)N[C@@H](CCCCN)C(=O)N[C@@H](CCCCN)C(=O)NC(C)(C)C(=O)N[C@@H](CCCCN)C(=O)N[C@@H](CCCCN)C(=O)NC(C)(C)C(=O)N[C@@H](CCCCN)C(=O)N[C@@H](CCCCN)C(=O)NC(C)(C)C(N)=O`, the MIC – broadly, the least concentration at which growth counts as inhibited – is 400 µM (≈ 433 µg/mL) against Escherichia coli, more than 800 µM with Pseudomonas aeruginosa and more than 800 µM in the experiment with Staphylococcus aureus.

As to `CC(=O)N[C@@H](CCCCN)C(=O)N[C@@H](CCCCN)C(=O)NC1(C(=O)N[C@@H](CCCCN)C(=O)N[C@@H](CCCCN)C(=O)NC2(C(=O)N[C@@H](CCCCN)C(=O)N[C@@H](CCCCN)C(=O)NC3(C(N)=O)CCCC3)CCCC2)CCCC1` (Ac-KK[Ac5c]KK[Ac5c]KK[Ac5c]-NH2), the values for the MIC with Escherichia coli, against Pseudomonas aeruginosa and in the experiment with Staphylococcus aureus were 50 µM (≈ 58.1 µg/mL), 400 µM (≈ 465 µg/mL) and more than 800 µM, respectively.

For the compound `CC(=O)NC(CCCCN)C(=O)NC(CCCCN)C(=O)NC(C)(C)C(=O)NC(CCCCN)C(=O)NC(CCCCN)C(=O)NC(C)(C)C(=O)NC(CCCCN)C(=O)NC(CCCCN)C(=O)NC(C)(C)C(N)=O` (racemic), the MIC against Escherichia coli, against Pseudomonas aeruginosa and with Staphylococcus aureus was more than 800 µM in each case.

With Ac-KKGKKGKKG-NH2, the MIC against Escherichia coli, in the experiment on Pseudomonas aeruginosa and against Staphylococcus aureus was more than 800 µM throughout.

Turning to `CC(=O)N[C@@H](CCCCN)C(=O)N[C@@H](CCCCN)C(=O)NC1(C(=O)N[C@@H](CCCCN)C(=O)N[C@@H](CCCCN)C(=O)NC2(C(=O)N[C@@H](CCCCN)C(=O)N[C@@H](CCCCN)C(=O)NC3(C(N)=O)CCCCC3)CCCCC2)CCCCC1` (Ac-KK[Ac6c]KK[Ac6c]KK[Ac6c]-NH2), the MIC is 25 µM (≈ 30.1 µg/mL) in the experiment with Escherichia coli, 50 µM (≈ 60.2 µg/mL) in the experiment on Pseudomonas aeruginosa and more than 800 µM in the experiment on Staphylococcus aureus.

In the case of Ac-GIGKFLHSAKKFGKAFVGEIMNS-NH2, the MIC against Escherichia coli was determined as 50 µM; in the experiment on Pseudomonas aeruginosa, 12.5 µM; against Staphylococcus aureus, 200 µM.

As for `CC(=O)N[C@@H](CCCCN)C(=O)N[C@H](CCCCN)C(=O)NC(C)(C)C(=O)N[C@@H](CCCCN)C(=O)N[C@H](CCCCN)C(=O)NC(C)(C)C(=O)N[C@@H](CCCCN)C(=O)N[C@H](CCCCN)C(=O)NC(C)(C)C(N)=O`, the MIC against Escherichia coli, against Pseudomonas aeruginosa and against Staphylococcus aureus was more than 800 µM throughout.
